Data reported in publication PMC7369637, “Inhibition of Resistance-Refractory P. falciparum Kinase PKG Delivers Prophylactic, Blood Stage, and Transmission-Blocking Antiplasmodial Activity” (Cell Chemical Biology, 2020).

Assays:
sel. Dd2-B2 TKL3T1268R = experiment: 72-h ABS assay, MMV030084-selected line; format: cell-based, Plasmodium falciparum; details: Plasmodium falciparum
Protocol: (§1) Synchronicity was achieved using three rounds of sorbitol treatment on early rings, spaced 48 h apart, followed by magnetic purification of segmented schizonts following the final sorbitol treatment. Parasites were highly synchronous to within a 3 h window of development. Assays were repeated on at least three independent occasions (each with technical duplicates) and statistical significance was assessed using Mann Whitney U tests.
(§2) The resulting MMV030084-resistant parasites were cloned by limiting dilution ([Baker et al., 2017]) to obtain genetically homogenous cultures for further phenotyping and whole-genome sequencing. A second round of […]. […] Drug susceptibility of resistant lines was assessed using a 72 h ABS assay as described above, and a Mann Whitney U test was applied to assess statistically significant differences.

ed. Dd2-B2 TKL3KO = experiment: 72-h ABS assay, TKL3 knockout line; format: cell-based; details: Plasmodium falciparum, parent Dd2-B2 wild-type
Protocol: as §1, §2
A CRISPR/Cas9 targeted gene editing strategy using an all-in-one plasmid approach was applied to introduce T1268R, I1250M and T1268R+I1250M in wild-type Dd2-B2 parasites or to produce a TKL3 KO line by inserting a stop codon and frameshift at amino acid position 1268. […] WR99210 (2.5 nM) was added to the culture medium 24 h after electroporation to select for successfully transfected parasites and was maintained in the medium until edited parasites were detected. […]

[1] = system: recombinant TKL3 kinase domain; experiment: Radioactive in vitro kinase assay with recombinant TKL3 kinase domain; format: biochemical, Plasmodium falciparum; details: 20 μM compound
Protocol: Recombinant proteins were expressed in E. coli as previously described ([Abdi et al., 2010]). […] The cultures were then cooled to 20°C followed by induction of protein expression with 0.5 mM IPTG and further incubation at 20°C, 200 rpm for 16 h. Cultures were harvested by centrifugation at 4000g, 4°C for 10 min. Bacterial pellets were washed once in 1× PBS and were stored at −80°C. Cell pellets were resuspended in ice-cold Lysis Buffer (50 mM sodium phosphate, pH 8.0, 400 mM NaCl, 5 % (w/v) glycerol, 0.1 % (v/v) Triton X-100, 20 mM imidazole, 2 mM β-mercaptoethanol, 1× Roche protease inhibitor cocktail EDTA-free, 1 mg/ml lysozyme). Cells were disrupted by sonication. Protein was bound on a HisTrap HP column and eluted with a linear gradient of increasing imidazole concentrations. The peak fractions as determined by A280 trace were pooled together and further purified by size exclusion chromatography on a S200 gel filtration column equilibrated in 25 mM Tris pH 7.5, 100 mM NaCl, 5 % (w/v) glycerol, 1 mM DTT. Protein was pooled and concentrated. Final concentration was determined using a Bradford assay with a BSA protein standard.
Kinase assays containing 3 μg of recombinant kinase (WT or mutant) were performed in kinase assay buffer (25 mM Hepes, pH 7.5, 2 mM MnCl2, 10 mM β-glycerophosphate, 10 mM NaF, 25 μM ATP (containing 5 μCi [γ-^32P]-ATP-3000 mCi/mmol (PerkinElmer)), 5 μg substrate myelin basic protein (MBP) and ± 20 μM inhibitor) in a final reaction volume of 20 μl and incubated at 30°C for 30 min. Reactions were stopped by the addition of 5× Laemmli sample buffer and heated to 98°C for 5 min. Proteins were resolved by 4-12 % SDS-PAGE and stained in Coomassie Brilliant Blue. Kinase activity was detected by phosphorimaging. Imaging was performed on a Typhoon 5 Biomolecular imager (GE Healthcare Life Sciences).

SMILES: CC(C)(CN)c1nc(-c2ccc(Cl)c(O)c2)c(-c2ccncc2)[nH]1 [MMV030084]
- IC50 (sel. Dd2-B2 TKL3T1268R): 355 nM
- IC50 (ed. Dd2-B2 TKL3KO): 376 nM
- Reduction in TKL3 kinase activity [1]: no reduction
